{
  "source": "patent US8338380B2",
  "about": "“Use of the peptide RFMWMR as a therapeutic agent” (priority 2007, dated 2012)",
  "key": {"Interferon-γ (IFN-γ)": {"system": "Interferon-γ (IFN-γ)", "experiment": "Th1/Th2 cytokine profiling assay: IFN-γ", "format": "cell-based", "details": "Ovalbumin-restimulated spleen cells of immunized Balb/c mice; 10 micrograms per ml; 72 hours"}, "Interleukin-4 (IL-4)": {"system": "Interleukin-4 (IL-4)", "experiment": "Th1/Th2 cytokine profiling assay: IL-4", "format": "cell-based", "details": "Ovalbumin-restimulated spleen cells of immunized Balb/c mice; 10 micrograms per ml; 72 hours"}, "[1]": {"system": "Tumor Necrosis Factor-α (TNF-α)", "experiment": "Th1/Th2 cytokine profiling assay: TNF-α", "format": "cell-based", "details": "Ovalbumin-restimulated spleen cells of immunized Balb/c mice; 10 micrograms per ml; 72 hours"}, "HCMV strain AD169": {"system": "HCMV strain AD169", "experiment": "HCMV plaque reduction assay in MRC-5 cells", "details": "HCMV AD169 in MRC-5 cells; peptide 10 micrograms per ml; 7-10 days"}, "Interleukin-5 (IL-5)": {"system": "Interleukin-5 (IL-5)", "experiment": "Th1/Th2 cytokine profiling assay: IL-5", "format": "cell-based", "details": "Ovalbumin-restimulated spleen cells of immunized Balb/c mice; 10 micrograms per ml; 72 hours"}, "MRSA": {"system": "MRSA", "experiment": "Methicillin resistant Staphylococcus aureus (MRSA) assay", "format": "cell-based", "details": "peptide 10 micrograms per ml, macroscopic growth, read visually"}, "TNF alpha": {"system": "TNF alpha", "experiment": "TNF alpha production assay in LPS-stimulated macrophages (ELISA)", "format": "cell-based, human", "details": "PBMC-derived macrophages, 10 micrograms per ml 30 min before lipopolysaccharide 200 ng/ml, overnight", "source_text": "Not stimulated macrophages served as negative background control."}, "[2]": {"system": "hepatitis B virus (HBV) ayw strain", "experiment": "HBV experimental assay system (secreted HBV DNA, TaqMan PCR)", "format": "cell-based", "details": "HepG2-2.2.15 cells; peptide 10 micrograms per ml; six days; HBV DNA in supernatant", "method": "HepG2-2.2.15 is a stable cell line containing the hepatitis B virus (HBV) ayw strain genome (ATCC Cat. No. CRL-11997). Antiviral compounds blocking any late step of viral replication such as transcription, translation, pregenome encapsidation, reverse transcription, particle assembly and release can be identified and characterized using this cell line.\nHepG2-2.2.15 cells were plated in 96-well microtiter plates. After 16-24 hours the confluent monolayer of HepG2-2.2.15 cells was washed and the medium was replaced with complete medium containing test peptide—10 micrograms per ml—in duplicate. […] Three days later the culture medium was replaced with fresh medium containing the peptide. Six days following the initial administration of the peptide, the cell culture supernatants was collected, treated with pronase and DNAse and then used in a real-time quantitative TaqMan PCR assay. The PCR-amplified HBV DNA was detected in real-time by monitoring increases in fluorescence signals that result from the exonucleolytic degradation of a quenched fluorescence probe molecule that hybridizes to the amplified HBV DNA. For each PCR amplification, a standard curve was simultaneously generated using dilutions of purified HBV DNA. Antiviral activity was calculated from the reduction in HBV DNA levels (% virus control). […]"}, "Interleukin-2 (IL-2)": {"system": "Interleukin-2 (IL-2)", "experiment": "Th1/Th2 cytokine profiling assay: IL-2", "format": "cell-based", "details": "Ovalbumin-restimulated spleen cells of immunized Balb/c mice; 10 micrograms per ml; 72 hours"}, "[3]": {"system": "Primary Human endothelial cells (HUVEC)", "experiment": "Endothelial cell migration assay", "format": "cell-based", "details": "10 micrograms per ml, 22 hours"}, "[4]": {"experiment": "Cytotoxicity in MRC-5 cells (CellTiter 96)", "details": "human, MRC-5 cells (embryonal lung fibroblasts)"}, "[5]": {"system": "Human Peripheral Blood Mononuclear Cells (PBMC)", "experiment": "B cell proliferation assay (SAC plus Interleukin-2, 3H-thymidine)", "format": "cell-based", "details": "10 micrograms per ml, 3 days, 3H-thymidine incorporation"}, "RAW 264.7 cells": {"system": "RAW 264.7 cells", "experiment": "Phagocytosis assay (Fluorescein-labeled Escherichia coli)", "format": "cell-based, Mouse", "details": "10 micrograms per ml, 30 min preincubation, 60 min ingestion, flow cytometry"}, "Streptococcus pneumoniae": {"system": "Streptococcus pneumoniae", "experiment": "Streptococcus pneumoniae assay", "format": "cell-based", "details": "peptide 10 micrograms per ml, macroscopic growth, read visually"}, "HIV-1IIIB": {"system": "HIV-1IIIB", "experiment": "HIV-1 antiviral assay (CPE reduction, MTS)", "format": "cell-based", "details": "peptide 10 micrograms per ml, 6 days post-infection"}, "Pseudomonas aeruginosa": {"system": "Pseudomonas aeruginosa", "experiment": "Pseudomonas aeruginosa assay", "format": "cell-based", "details": "peptide 10 micrograms per ml, macroscopic growth, read visually"}, "A549 cells [6]": {"system": "A549 cells", "experiment": "Propidium iodide cell cycle assay", "format": "cell-based, Human", "details": "10 micrograms per ml, 24 hours, FACS"}, "HUVEC": {"system": "HUVEC", "experiment": "Endothelial tube formation assay", "format": "cell-based, Human", "details": "10 micrograms per ml, 20 hours, average tubule length", "source_text": "Positive control was vehicle only."}, "A549 cells [7]": {"system": "A549 cells", "experiment": "Apoptosis prevention assay (C2 ceramide, Annexin-5)", "format": "cell-based, Human", "details": "A549 cells pretreated 30 min with 10 micrograms per ml, then C2 ceramide"}, "A549 cells [8]": {"system": "A549 cells", "experiment": "Apoptosis induction assay (Annexin-5)", "format": "cell-based, Human", "details": "apoptosis in A549 cells, 10 micrograms per ml, 24 hours"}, "[9]": {"experiment": "Cytotoxicity in CEM-SS cells (MTS) of the HIV-1 experiments", "details": "human"}, "[10]": {"system": "Human Peripheral Blood Mononuclear Cells (PBMC)", "experiment": "T cell proliferation assay (PHA, 3H-thymidine)", "format": "cell-based", "details": "10 micrograms per ml, 3 days, 3H-thymidine incorporation"}, "[11]": {"experiment": "Cytotoxicity in HepG2-2.2.15 cells (dye uptake assay)", "format": "cell-based", "details": "human, peptide 10 micrograms per ml, read-out: % Cell Viability"}},
  "data": [
    {"substance": "Ac-RFMWMR-NH2 [Ac-Arg-Phe-Met-Trp-Met-Arg-NH2]", "values": [
      {"measurement": "INFγ spleen cells; TH1 response (% of control)", "setting": "Interferon-γ (IFN-γ)", "result": "218.6 % of control"},
      {"measurement": "IL-4 spleen cells; TH2 response (% of control)", "setting": "Interleukin-4 (IL-4)", "result": "156.2 % of control"},
      {"measurement": "TNF-a spleen cells; TH1 response (% of control)", "setting": "[1]", "result": "118.8 % of control"},
      {"measurement": "% plaque reduction", "setting": "HCMV strain AD169", "result": 0.0, "unit": "%"},
      {"measurement": "IL-5 spleen cells; TH2 response (% of control)", "setting": "Interleukin-5 (IL-5)", "result": "93.8 % of control"},
      {"measurement": "% inhibition", "setting": "MRSA", "result": 0.0, "unit": "%"},
      {"measurement": "% of LPS induction", "setting": "TNF alpha", "result": 149.8, "unit": "%"},
      {"measurement": "% inhibition of HBV replication in HEP G2 cells", "setting": "[2]", "result": 46.8, "unit": "%"},
      {"measurement": "IL-2 spleen cells (% of control)", "setting": "Interleukin-2 (IL-2)", "result": "156.5 % of control"},
      {"measurement": "% inhibition of migration", "setting": "[3]", "result": "−15", "unit": "%"},
      {"measurement": "viability at 144 h", "setting": "[4]", "result": 84, "unit": "%"},
      {"measurement": "% of SAC/IL2 induced control", "setting": "[5]", "result": 106.3, "unit": "%"},
      {"measurement": "% of control phagocytosis", "setting": "RAW 264.7 cells", "result": 105.9, "unit": "%"},
      {"measurement": "% inhibition", "setting": "Streptococcus pneumoniae", "result": 0.0, "unit": "%"},
      {"measurement": "% CPE reduction in HIV-1 infected CEM-SS cells", "setting": "HIV-1IIIB", "result": 0.0, "unit": "%"},
      {"measurement": "% inhibition", "setting": "Pseudomonas aeruginosa", "result": 0.0, "unit": "%"},
      {"measurement": "Cell cycle analysis G0/G1", "setting": "A549 cells [6]", "result": 59.2},
      {"measurement": "Cell cycle analysis G2/M", "setting": "A549 cells [6]", "result": 8.2},
      {"measurement": "Cell cycle analysis S", "setting": "A549 cells [6]", "result": 32.7},
      {"measurement": "% inhibition of tube formation", "setting": "HUVEC", "result": 23, "unit": "%"},
      {"measurement": "% prevention of ceramide induced apoptosis", "setting": "A549 cells [7]", "result": 0.0, "unit": "%"},
      {"measurement": "% of induction", "setting": "A549 cells [8]", "result": 1.2, "unit": "%"},
      {"measurement": "viability at 10 micrograms per ml", "setting": "[9]", "result": 100, "unit": "%"},
      {"measurement": "% of PHA induced control", "setting": "[10]", "result": 109.1, "unit": "%"},
      {"measurement": "viability at 144 h, 10 micrograms per ml", "setting": "[11]", "result": 100, "unit": "%"}
    ]}
  ]
}
